From patent US7259140B2, “Heparin-binding peptides and uses thereof” (Thomas Jefferson University, priority 2003, dated 2007)
Ends that are not written are not given here.

Columns and labels:
[1] = system: anti-Factor Xa Activity of the Low Molecular Weight Heparin Lovenox ®; test: Anti-Factor Xa assay (Stachrom Heparin kit): neutralization of Lovenox in citrate or plasma in vitro; format: biochemical, human; details: for Lovenox ® Neutralized: Lovenox 0.7 U/ml
Description: The ability of peptides such as (ARKKAAKA)3VLVLVLVL (SEQ ID NO:5) to neutralize the anti-Factor Xa activity of UFH and LMWH in vitro was tested using the Stachrom Heparin kit (Diagnostica Stago), a standard hematology laboratory assay used to measure the anti-Factor Xa activity of heparin. The assay was performed using the low molecular weight heparin enoxaparin sodium (Lovenox®, Aventis Pharmaceuticals, Inc.), unfractionated heparin (UFH), or the non-heparin glycosaminoglycan danaparoid sodium (Orgaran®, Organon Inc., West Orange, N.J.) in 0.32% citrate or in plasma anticoagulated with 0.32% citrate. Enoxaparin is commonly used clinically as a low molecular weight heparin (LMWH). Danaparoid is commonly used clinically as a non-heparin glycosaminoglycan anticoagulant. Currently, the only FDA approved drug to target UFH is protamine, which is not effective in vivo against LMWH or a non-heparin glycosaminoglycan such as danaparoid. Buffer and ATIII are added to form the heparin/ATIII complex, peptide is added, then Factor Xa, reporter dye substrate for Factor Xa activity, and stop solution, and the dye concentration is read at 405 nm. The absorbance of the dye increases with increasing Factor Xa activity, and thus is inversely proportional to the heparin (anti-Factor Xa activity) concentration. Peptides were tested in plasma obtained from three volunteers (A, B, and C). Platelet function inhibitors PG12 and theophylline were added to the blood immediately upon collection.
Results. […] (ARKKAAKA)3VLVLVLVL (SEQ ID NO:5) and VLVL(ARKKAAKA)3ARKKCAKA (SEQ ID NO:38) were able to neutralize about 0.4 U/ml anti-Factor Xa activity of LMWH at a concentration of 12 μg/ml, which would be an effective dose for patients. (AKKARA)6 (SEQ ID […]), (ARKKAAKA)4 (SEQ ID NO:31) and (ARKKAAKA)3ARKKCAKA […] 0.3-0.35 U/ml. In contrast, 12 μg protamine only neutralized about 0.25 U/ml of LMWH under these conditions.

[2] = Affinity coelectrophoresis (ACE) of peptide binding to radiolabeled low Mr heparin; parameters: species or system pig; details: for Kd: pH 7.0, mean and standard deviation of four assays, read-out: Kd (nM), affinity for low molecular weight heparin
Excerpt: Preparation of Radiolabeled Heparin. Whole heparin from pig intestinal mucosa (Sigma) was tyramine end-labeled and radiolabeled with Na^125I (Amersham, Pharmacia Biotech, Inc., Piscataway, N.J.) to an average specific activity≅1.0×10^7 CPM/μg as described (San Antonio, J. D., et al., Biochemistry, 32:4746-4755, 1993). Radiolabeled heparin was fractionated on Sephadex G-100 (Bio-Rad Laboratories, Hercules, Calif.) and the final≅12% of material to elute was retained as the low Mr material of ≦6,000 (Jordan, R., D. Beeler, and R. Rosenberg, J. Biol. Chem., 254:2902-2913, 1979; Laurent, T. C., et al., Biochem. J., 175:691-701, 1978).
Analysis of Peptide-Heparin Interactions by Affinity Coelectrophoresis (ACE). ACE was used to study interactions between peptides and low molecular weight (low Mr) heparin (WO00/45831). In ACE, trace concentrations of radiolabeled heparin are electrophoresed through agarose lanes containing peptides at various concentrations. These analyses are used to determine the dissociation constants (Kd's). The electrophoretic patterns of radiolabeled heparin are then visualized using a phosphorimager, and the dissociation constant (Kd) corresponds to the protein concentration at which the heparin is half shifted from being fully mobile at very low protein concentrations to maximally retarded at saturating protein concentrations. The lower the Kd value, the higher the affinity.
Binding of radiolabeled heparin to peptides was studied by ACE as detailed elsewhere (San Antonio, J. D., et al., Biochemistry, 32:4746-4755, 1993). […] Briefly, peptides were dissolved in 1×ACE running buffer, 50 mM sodium 3-(N-morpholino)-2-hydroxypropanesulfonate (MOPSO, Sigma)/125 mM sodium acetate, pH 7.0, and serially diluted in running buffer at 2× concentrations. Peptides were then mixed 1:1 with 2% agarose/1% CHAPS, 3-[(3-cholamidopropyl)dimethylammonio]-1-propanesulfonate, (Boehringer Mannheim, Indianapolis, Ind.), and loaded into wells of a 1% agarose gel. Radiolabeled heparin was then loaded in a slot on the anode side of the gel, and electrophoresed through the peptide-containing wells, towards the cathode. Gels were dried and PG mobility was measured with a Phosphorimager (Molecular Dynamics, Sunnyvale, Calif.) by scanning each protein lane and determining the relative radioactivity content per 88-μm pixel through the length of the lane. Retardation coefficient (R) measurements, binding isotherm curve fittings, and apparent Kd value determinations were calculated as detailed previously (Lee, M. K., and A. D. Lander, Proc. Natl. Acad. Sci. USA, 88:2768-2772, 1991; San Antonio, J. D., et al, Biochemistry, 32:4746-4755, 1993).
Retardation coefficients (R) for the migration of low Mr 1^25I-tyramine-heparin through peptides were determined from ACE gel electrophoretograms, and are plotted against peptide concentration. Smooth curves represent non-linear least-squares fits to the equation R=R∞/{1+(Kd/[peptide])^n}.

[3] = system: Lovenox ® Activity in Blood from Patients Treated with Lovenox ®; test: Neutralizing Lovenox activity in blood from patients treated with Lovenox (anti-Factor Xa assay); format: biochemical, human; details: Peptide 12 μg/ml
Description: Blood was obtained from volunteers who were being treated with Lovenox® for their medical conditions after obtaining signatures on informed consent forms as approved by the Institutional Review Board. The assays to test neutralization of Lovendx® were performed as described for Table 2. A dose response from 1-60 μg/ml was evaluated as in Table 2.
The dose response pattern for the effective peptides was similar to the dose response in control plasma to which Lovenox® had been added. Each data point represents the mean and standard deviation of triplicate analyses on the same sample of blood from each patient.

[4] = blood of Lovenox-treated Patient Number 1
[5] = blood of Lovenox-treated Patient Number 2
[6] = blood of Lovenox-treated Patient Number 3
[7] = blood of Lovenox-treated Patient Number 4
[8] = blood of Lovenox-treated Patient Number 5
[9] = blood of Lovenox-treated Patient Number 8
[10] = blood of Lovenox-treated Patient Number 9
[11] = blood of Lovenox-treated Patient Number 10
[12] = blood of Lovenox-treated Patient Number 11

Sequence | Lovenox ® Neutralized ([1]; 1 μg/ml Peptide, A Plasma) | Lovenox ® Neutralized ([1]; 1 μg/ml Peptide, B Plasma) | Lovenox ® Neutralized ([1]; 1 μg/ml Peptide, C Plasma) | Lovenox ® Neutralized ([1]; 1 μg/ml Peptide, Citrate) | Lovenox ® Neutralized ([1]; 6 μg/ml Peptide, A Plasma) | Lovenox ® Neutralized ([1]; 6 μg/ml Peptide, B Plasma) | Lovenox ® Neutralized ([1]; 6 μg/ml Peptide, C Plasma) | Lovenox ® Neutralized ([1]; 6 μg/ml Peptide, Citrate) | Lovenox ® Neutralized ([1]; 12 μg/ml Peptide, A Plasma) | Lovenox ® Neutralized ([1]; 12 μg/ml Peptide, B Plasma) | Lovenox ® Neutralized ([1]; 12 μg/ml Peptide, C Plasma) | Lovenox ® Neutralized ([1]; 12 μg/ml Peptide, Citrate) | Lovenox ® Neutralized ([1]; 60 μg/ml Peptide, A Plasma) | Lovenox ® Neutralized ([1]; 60 μg/ml Peptide, B Plasma) | Lovenox ® Neutralized ([1]; 60 μg/ml Peptide, C Plasma) | Lovenox ® Neutralized ([1]; 60 μg/ml Peptide, Citrate) | Lovenox ® Neutralized ([1]; 120 μg/ml Peptide, A Plasma) | Lovenox ® Neutralized ([1]; 120 μg/ml Peptide, B Plasma) | Lovenox ® Neutralized ([1]; 120 μg/ml Peptide, C Plasma) | Lovenox ® Neutralized ([1]; 120 μg/ml Peptide, Citrate) | other results
ARKKAAKAAAAAAAAAAAAAAAAAARKKAAKA [ARKKAAKA(A16)ARKKAAKA, reference compound] | 0.010 ± 0.008 U/ml | 0.027 ± 0.014 U/ml | 0.0 U/ml | 0.020 ± 0.023 U/ml | 0.018 ± 0.018 U/ml | 0.042 ± 0.041 U/ml | 0.0 U/ml | 0.013 ± 0.007 U/ml | 0.025 ± 0.011 U/ml | 0.042 ± 0.023 U/ml | 0.008 ± 0.012 U/ml | 0.010 ± 0.007 U/ml | 0.018 ± 0.020 U/ml | 0.061 ± 0.067 U/ml | 0.015 ± 0.012 U/ml | 0.017 ± 0.014 U/ml | 0.043 ± 0.020 U/ml | 0.092 ± 0.042 U/ml | 0.003 ± 0.002 U/ml | 0.069 ± 0.035 U/ml | effect in the anti-Factor Xa assay for Lovenox ([1]; in both citrate and plasma): minimal effects; Kd [2]: 8327 ± 60 nM; Lovenox ® Neutralized [3, 4]: 0 U/ml; Lovenox ® Neutralized [3, 5]: 0.011 U/ml; Lovenox ® Neutralized [3, 6]: 0.055 U/ml; Lovenox ® Neutralized [3, 7]: 0.035 U/ml; Lovenox ® Neutralized [3, 8]: 0.005 U/ml; Lovenox ® Neutralized [3, 9]: 0 U/ml; Lovenox ® Neutralized [3, 10]: 0.009 U/ml; Lovenox ® Neutralized [3, 11]: 0.062 U/ml; Lovenox ® Neutralized [3, 12]: 0.007 + U/ml
ARKKAAKAARKKAAKAARKKAAKAARKKAAKA [(ARKKAAKA)4] | 0.020 ± 0.016 U/ml | 0.031 ± 0.015 U/ml | 0.059 ± 0.029 U/ml | 0.141 ± 0.051 U/ml | 0.184 ± 0.038 U/ml | 0.178 ± 0.022 U/ml | 0.252 ± 0.024 U/ml | 0.376 ± 0.019 U/ml | 0.287 ± 0.058 U/ml | 0.328 ± 0.041 U/ml | 0.325 ± 0.030 U/ml | 0.473 ± 0.039 U/ml | 0.343 ± 0.090 U/ml | 0.488 ± 0.012 U/ml | 0.495 ± 0.032 U/ml | 0.515 ± 0.016 U/ml | 0.601 ± 0.052 U/ml | 0.541 ± 0.065 U/ml | 0.570 ± 0.029 U/ml | 0.509 ± 0.079 U/ml | anti-LMWH effect in citrate compared with plasma ([1]; Table 2A): greater anti-LMWH effect in citrate than in plasma; Lovenox/LMWH neutralization compared with protamine ([1]; low concentrations, in the presence of plasma): more effective than protamine; affinity for low molecular weight heparin [2]: high heparin affinity; Kd [2]: 55 ± 32 nM; Lovenox ® Neutralized [3, 4]: 0.116 U/ml; Lovenox ® Neutralized [3, 5]: 0.073 U/ml; Lovenox ® Neutralized [3, 6]: 0.105 U/ml; Lovenox ® Neutralized [3, 7]: 0.225 U/ml; Lovenox ® Neutralized [3, 8]: 0.194 U/ml; Lovenox ® Neutralized [3, 9]: 0.289 U/ml; Lovenox ® Neutralized [3, 10]: 0.283 U/ml; Lovenox ® Neutralized [3, 11]: 0.194 U/ml; Lovenox ® Neutralized [3, 12]: 0.135 U/ml
